pIC50: −log10 of the molar value. Like-named read-outs stand apart in the source and are kept apart here.
What was measured:
[1] = system: Candida albicans (ATCC 10231); assay: Minimum Inhibitory Concentration (MIC) against yeast, broth dilution; assay type: cell-based; details: for MIC: Candida albicans, read-out: MIC Candida albicans (ATCC 10231)
[2] = molecular target: T1, NAD synthetase (recombinant protein from B. subtilis; purified) (Bacillus subtilis, UniProt P08164); assay: NAD synthetase enzyme inhibition assay (coupled enzymatic assay, HTS); assay type: biochemical
T1 construct: made in house
T1 sequence (P08164 whole entry): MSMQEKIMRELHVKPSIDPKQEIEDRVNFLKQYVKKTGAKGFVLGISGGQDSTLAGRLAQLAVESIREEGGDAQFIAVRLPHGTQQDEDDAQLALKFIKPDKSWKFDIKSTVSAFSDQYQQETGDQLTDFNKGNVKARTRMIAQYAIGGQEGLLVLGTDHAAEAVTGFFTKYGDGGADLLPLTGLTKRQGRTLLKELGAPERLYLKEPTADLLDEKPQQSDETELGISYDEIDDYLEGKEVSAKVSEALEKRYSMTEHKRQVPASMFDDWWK
Method: NAD Synthetase Enzyme Inhibition Assay-Determination of Test Compound Concentrations Providing 50% Inhibition ([…]) of the Maximum Enzyme Rate
The potential inhibitory activity of the synthetic compounds was determined by the use of a coupled enzymatic assay. The coupled assay involves two steps as summarized below. [drawing 98]
The measurement of inhibitory activities of the test compounds was facilitated by the use of a high through-put screening system (HTS system). The HTS system utilizes an integrated Sagian 2M ORCA robotic system coordinating the functions of a Beckman Biomek 2000 liquid handler and a Molecular Devices SpectraMax Plus spectrophotometer. The 2M ORCA robotic station is responsible for the movement of all hardware and the integration of multiple stations on the worksurface. The Biomek 2000 is programmed to perform all phases of liquid dispensing and mixing. The SpectraMax Plus spectrophotometer is equipped to monitor absorbance in a 96-well plate format.
The Biomek 2000 mixes these components utilizing a predefined mixing program. […] The reaction is monitored by measuring the increase in absorbance at 340 nm (NADH). The linear portion of the reaction is monitored for 180 sec. The initial velocity is determined using Softmax Pro, the software supplied with the Molecular Devices SpectrMax Plus spectrophotometer.
The test compounds were supplied as a stock solution with a concentration of 50 mM dissolved in 100% dimethyl sulfoxide (DMSO). An initial screen was conducted on all compounds using a 2 or 3 concentration screen. The 2 panel screen used concentrations of 0.2 mM and 0.1 mM for the compounds. The 3 panel screen used concentrations of 0.2 mM, 0.1 mM, and 0.05 mM. […] The IC50 values for each compound were determined graphically from a plot of % inhibition versus […].

[3] = system: Candida tropicalis (ATCC 28707-amphotericin B-resistant); assay: Minimum Inhibitory Concentration (MIC) against yeast, broth dilution; assay type: cell-based; details: Candida tropicalis, ATCC28707, 37° C., 20 hours, mean of duplicate
[4] = system: Candida tropicalis (ATCC 750); assay: as above; assay type: cell-based; details: Candida tropicalis, ATCC750; 37° C., 20 hours, mean of duplicate
[5] = system: Candida tropicalis ATCC 750; assay: In vitro study of inhibition of growth and lethality against yeast (MIC/MLC susceptibility test), isolate A; assay type: cell-based; details: Candida tropicalis, 2nd pair of lines, isolate assigned by line order; for MFC: ATCC750, read-out: Minimum Lethal Conc. (MLC)
[6] = system: Candida tropicalis ATCC 28707; assay: In vitro study of inhibition of growth and lethality against yeast (MIC/MLC susceptibility test), isolate B; assay type: cell-based; details: Candida tropicalis, 1st pair of lines, isolate assigned by line order; for MFC: ATCC28707, read-out: Minimum Lethal Conc. (MLC)
[7] = system: Candida albicans KJP-000531594; assay: In vitro study of inhibition of growth and lethality against yeast (MIC/MLC susceptibility test), isolate C; assay type: cell-based; details: Candida albicans, Candida albicans, 1st pair of lines; for MFC: KJP000531594, read-out: Minimum Lethal Conc. (MLC)
[8] = system: Candida albicans LH-000664533; assay: In vitro study of inhibition of growth and lethality against yeast (MIC/MLC susceptibility test), isolate D; assay type: cell-based; details: Candida albicans, Candida albicans, 2nd pair of lines, isolate assigned by line order; for MFC: LH000664533, read-out: Minimum Lethal Conc. (MLC)
[9] = system: Torulopsis glabrata JHC-BC9951635; assay: In vitro study of inhibition of growth and lethality against yeast (MIC/MLC susceptibility test), isolate E; assay type: cell-based; details: Torulopsis glabrata, 2nd pair of lines, isolate assigned by line order; for MIC / MFC: Nakaseomyces glabratus; for MFC: JHCBC9951635, read-out: Minimum Lethal Conc. (MLC)
[10] = system: Torulopsis glabrata ERH-BC9938274; assay: In vitro study of inhibition of growth and lethality against yeast (MIC/MLC susceptibility test), isolate F; assay type: cell-based; details: Torulopsis glabrata, 1st pair of lines, isolate assigned by line order; for MIC / MFC: Nakaseomyces glabratus; for MFC: ERHBC9938274, read-out: Minimum Lethal Conc. (MLC)
[11] = system: Cryptococcus neoformans DLB-1027594CNC; assay: In vitro study of inhibition of growth and lethality against yeast (MIC/MLC susceptibility test), isolate G; assay type: cell-based; details: Cryptococcus neoformans, DLB1027594CNC, Cryptococcus neoformans, 1st pair of lines, isolate assigned by line order; for MFC: read-out: Minimum Lethal Conc. (MLC)
[12] = system: Cryptococcus neoformans SLP-BC0012854; assay: In vitro study of inhibition of growth and lethality against yeast (MIC/MLC susceptibility test), isolate H; assay type: cell-based; details: Cryptococcus neoformans, Cryptococcus neoformans, 2nd pair of lines, isolate assigned by line order; for MFC: SLPBC0012854, read-out: Minimum Lethal Conc. (MLC)
[13] = 37° C., 20 hours, mean of duplicate
[14] = IC50 (μg/mL) for Inhibit. of NAD Synthetase, table of structures used in the yeast assay (Example 4)
[15] = ATCC750, 24 h, read at 24 hr, read-out: Minimum Inhibitory Conc. (MIC), 24 hr.
[16] = ATCC750, 48 h, read at 48 hr, read-out: Minimum Inhibitory Conc. (MIC), 48 hr.
[17] = ATCC28707, 24 h, read at 24 hr, read-out: Minimum Inhibitory Conc. (MIC), 24 hr.
[18] = ATCC28707, 48 h, read at 48 hr, read-out: Minimum Inhibitory Conc. (MIC), 48 hr.
[19] = KJP000531594, 24 h, read at 24 hr, isolate not given, assigned by line order and MLC of Table 4B, read-out: Minimum Inhibitory Conc. (MIC), 24 hr.
[20] = KJP000531594, 48 h, read at 48 hr, isolate assigned by line order, read-out: Minimum Inhibitory Conc. (MIC), 48 hr.
[21] = LH000664533, 24 h, read at 24 hr, read-out: Minimum Inhibitory Conc. (MIC), 24 hr.
[22] = LH000664533, 48 h, read at 48 hr, read-out: Minimum Inhibitory Conc. (MIC), 48 hr.
[23] = JHCBC9951635, 24 h, read at 24 hr, read-out: Minimum Inhibitory Conc. (MIC), 24 hr.
[24] = JHCBC9951635, 48 h, read at 48 hr, read-out: Minimum Inhibitory Conc. (MIC), 48 hr.
[25] = ERHBC9938274, 24 h, read at 24 hr, read-out: Minimum Inhibitory Conc. (MIC), 24 hr.
[26] = ERHBC9938274, 48 h, read at 48 hr, read-out: Minimum Inhibitory Conc. (MIC), 48 hr.
[27] = 48 h, read at 48 hr, read-out: Minimum Inhibitory Conc. (MIC), 48 hr.
[28] = 72 h, read at 72 hr, read-out: Minimum Inhibitory Conc. (MIC), 72 hr.
[29] = SLPBC0012854, 48 h, read at 48 hr, read-out: Minimum Inhibitory Conc. (MIC), 48 hr.
[30] = SLPBC0012854, 72 h, read at 72 hr, read-out: Minimum Inhibitory Conc. (MIC), 72 hr.

Row | SMILES | MIC Candida albicans (ATCC 10231) [1, 13] [µg/mL] | pIC50 [2, 14] | MFC [5] [µg/mL] | MIC [5, 15] [µg/mL] | MIC [5, 16] [µg/mL] | MFC [6] [µg/mL] | MIC [6, 17] [µg/mL] | MIC [6, 18] [µg/mL] | MIC [7, 19] [µg/mL] | MIC [7, 20] [µg/mL] | MIC [8, 21] [µg/mL] | MIC [8, 22] [µg/mL] | MFC [8] [µg/mL] | MIC [9, 23] [µg/mL] | MIC [9, 24] [µg/mL] | MFC [9] [µg/mL] | MIC [10, 25] [µg/mL] | MIC [10, 26] [µg/mL] | MFC [10] [µg/mL] | MIC [11, 27] [µg/mL] | further results
1 | COC(=O)c1cc2ccccc2n1CCCCCCCCCOC(=O)Cc1ccc([N+](C)(C)C)cc1 [Compound 986] | 2.3 |  |  |  |  |  |  |  |  |  |  |  |  |  |  |  |  |  |  |  | 
2 | COC(=O)c1cc2ccccc2n1CCCCCCCOC(=O)Cc1ccc([N+](C)(C)C)cc1 [Compound 984] |  |  |  |  |  |  |  |  |  |  |  |  |  |  |  |  |  |  |  |  | MIC ([1]; ATCC10231, 20 h): 0.78 µg/mL
3 | COC(=O)c1cc2ccccc2n1CCCCCCCCOC(=O)Cc1ccc([N+](C)(C)C)cc1 [Compound 985] | 1.6 |  |  |  |  |  |  |  |  |  |  |  |  |  |  |  |  |  |  |  | 
4 | C[N+](C)(C)c1ccc(CC(=O)OCCCCCCCCOc2ccc(OCc3ccccc3)cc2)cc1.[I-] [Compound 1094] |  | 4.50 | 4 | 1 | 1 | 2 | 0.5 | 0.5 | 1 | 2 | 2 | 2 | 8 | 0.5 | 1 | 4 | 0.5 | 1 | 4 | 1 | pIC50 [2]: 4.70; MIC ([1]; ATCC10231, 37° C., 20 hours, mean of duplicate): 6.2 µg/mL; MIC [3]: 0.78 µg/mL; MIC [4]: 0.78 µg/mL; Minimum Inhibitory Conc. (MIC), 24 hr. ([9]; read at 24 hr): 1 µg/mL; Minimum Inhibitory Conc. (MIC), 24 hr. ([10]; read at 24 hr): 1 µg/mL; MIC [11, 28]: 1 µg/mL; MFC [11]: 2 µg/mL; MIC [12, 29]: 1 µg/mL; MIC [12, 30]: 1 µg/mL; MFC [12]: 2 µg/mL
5 | COC(=O)c1cc2cc(OCc3ccccc3)ccc2n1CCCCCCCCOC(=O)c1ccc[n+](C)c1 [Compound 977] | 1.6 |  |  |  |  |  |  |  |  |  |  |  |  |  |  |  |  |  |  |  | 
6 | COC(=O)c1cc2cc(OCc3ccccc3)ccc2n1CCCCCCCOC(=O)c1ccc[n+](C)c1 [Compound 976] | 3.1 |  |  |  |  |  |  |  |  |  |  |  |  |  |  |  |  |  |  |  | 
7 | Cc1[nH]c2ccccc2c1/C=C/C1=[N+](C)c2ccccc2C1(C)C.[Cl-] [Compound 1400] |  | < 3.24 | > 32 | > 32 | > 32 | 16 | 16 | 32 | > 32 | > 32 | > 32 | > 32 | > 32 | > 33 | > 32 | > 32 | > 34 | > 32 | > 32 | > 32 | Minimum Inhibitory Conc. (MIC), 48 hr. ([6]; read at 48 hr): 16 µg/mL; MFC ([7]; isolate assigned by line order): > 32 µg/mL; Minimum Inhibitory Conc. (MIC), 24 hr. ([9]; read at 24 hr): >32 µg/mL; Minimum Inhibitory Conc. (MIC), 24 hr. ([10]; read at 24 hr): >32 µg/mL; MIC [11, 28]: > 32 µg/mL; MFC [11]: > 32 µg/mL; MIC [12, 29]: > 32 µg/mL; MIC [12, 30]: > 32 µg/mL; MFC [12]: > 32 µg/mL
8 | C[n+]1cccc(C(=O)OCCCCCCCCCn2ccc3ccccc32)c1 [Compound 970] | 0.8 |  |  |  |  |  |  |  |  |  |  |  |  |  |  |  |  |  |  |  | pIC50 ([2]; read-out: IC50: concentration of test compound producing 50% inhibition of the NAD synthetase enzyme rate, Table 1, recombinant B. subtilis NAD synthetase, absorbance at 340 nm): 4.70
9 | C[N+](C)(C)c1ccc(CC(=O)OCCCCCCCCn2ccc3cc(OCc4ccccc4)ccc32)cc1 [Compound 749] | 1.6 |  |  |  |  |  |  |  |  |  |  |  |  |  |  |  |  |  |  |  | 
10 | C[N+](C)(C)C(CCc1ccccc1)C(=O)OCCCCCCCCOc1ccc(OCc2ccccc2)cc1.[I-] (stereo not shown) [Compound 1260] |  | 4.34 | 2 | 2 | 2 | 1 | 1 | 1 | 2 | 2 | 2 | 2 | 4 | 2 | 2 | 2 | 2 | 2 | 2 | 1 | MFC ([7]; isolate assigned by line order): 2 µg/mL; MIC [11, 28]: 1 µg/mL; MFC [11]: 2 µg/mL; MIC [12, 29]: 1 µg/mL; MIC [12, 30]: 1 µg/mL; MFC [12]: 2 µg/mL

Source: patent US6673827B1, “Methods of treating fungal infections with inhibitors of NAD synthetase enzyme” (priority 1999, dated 2004)
